Measured values taken from ChEMBL document CHEMBL3600319, “Chemical constituents isolated from the Mongolian medicinal plant Sophora alopecuroides L. and their inhibitory effects on LPS-induced nitric oxide production in RAW 264.7 macrophages” (Bioorg Med Chem Lett, 2015).
pIC50: −log10 of the molar value.

Key:
RAW264.7 [1] = test: Antiinflammatory activity in mouse RAW264.7 cells assessed as inhibition of LPS-stimulated nitric oxide production after 24 hrs by Griess method; format: functional, cell-based; conditions: RAW264.7, 24 h
RAW264.7 [2] = test: Cytotoxicity against mouse RAW264.7 cells assessed as cell viability at IC50 by MTT assay; format: cell-based
RAW264.7 [3] = test: Potency index, ratio of aminoguanidine IC50 to compound IC50 for mouse RAW264.7 cells; format: functional

C=C(C)C(CCC(C)(C)O)Cc1c2c(c(O)c3c1O[C@H](c1ccc(O)cc1)[C@H]3c1cc(O)cc(O)c1)C(=O)C[C@@H](c1ccc(O)cc1O)O2 (stereo partly specified)
pIC50 (RAW264.7 [1]): 4.49
Activity (RAW264.7 [2]): Non-toxic

CC1(C)CCC(Cc2c3c(c(O)c4c2O[C@H](c2ccc(O)cc2)[C@H]4c2cc(O)cc(O)c2)C(=O)C[C@@H](c2ccc(O)cc2O)O3)C(C)(C)O1 (stereo partly specified)
pIC50 (RAW264.7 [1]): 4.56
Activity (RAW264.7 [2]): Non-toxic

C=C(C)C(CC=C(C)C)Cc1c2c(c(O)c3c1O[C@@H](c1ccc(O)cc1)[C@H]3c1cc(O)cc(O)c1)C(=O)C[C@@H](c1ccc(O)cc1O)O2 (stereo partly specified)
pIC50 (RAW264.7 [1]): 4.80
Activity (RAW264.7 [2]): Non-toxic

CC(C)=CCc1c2c(c(O)c3c1O[C@H](c1ccc(O)cc1)[C@H]3c1cc(O)cc(O)c1)C(=O)C[C@@H](c1ccc(O)cc1)O2
pIC50 (RAW264.7 [1]): 4.72
Activity (RAW264.7 [2]): Non-toxic

CC(C)=CCc1c2c(c(O)c3c1O[C@H](c1ccc(O)cc1)[C@H]3c1cc(O)cc(O)c1)C(=O)C[C@@H](c1ccc(O)cc1O)O2
Ratio IC50 (RAW264.7 [3]): 3
pIC50 (RAW264.7 [1]): 5.14
Activity (RAW264.7 [2]): Non-toxic

CC(C)=CCC1Cc2c(cc(O)c3c2O[C@H](c2ccc(O)cc2O)CC3=O)OC1(C)C (stereo partly specified)
pIC50 (RAW264.7 [1]): 4.97
Activity (RAW264.7 [2]): Non-toxic

C=CC(C)(C)c1c(OC)cc(O)c2c(=O)c3c(CC=C(C)C)c(O)c(O)cc3oc12 [CUDRAXANTHONE D]
pIC50 (RAW264.7 [1]): 4.79
Activity (RAW264.7 [2]): Non-toxic

C=C(C)C(CC=C(C)C)Cc1c(O)cc(OC)c2c1O[C@H](c1ccc(O)cc1O)CC2=O (stereo partly specified) [KURARINONE]
pIC50 (RAW264.7 [1]): 4.58
Activity (RAW264.7 [2]): Non-toxic

Oc1ccc([C@@H]2c3c(O)cc(O)cc3[C@H]3[C@H](c4ccc(O)cc4)c4c(O)cc(O)cc4[C@@H]23)cc1 [PALLIDOL]
pIC50 (RAW264.7 [1]): < 4.30
Activity (RAW264.7 [2]): Non-toxic

N=C(N)NN [PIMAGEDINE]
pIC50 (RAW264.7 [1]): 4.69

CC(C)=CCc1c(O)cc(O)c2c1OC(c1ccc(O)cc1)CC2=O (stereo unspecified) [SOPHORAFLAVANONE B]
pIC50 (RAW264.7 [1]): 4.58
Activity (RAW264.7 [2]): Non-toxic

C=C(C)[C@H](CC=C(C)C)Cc1c(O)cc(O)c2c1O[C@H](c1ccc(O)cc1O)CC2=O [SOPHORAFLAVANONE G]
pIC50 (RAW264.7 [1]): 4.96
Activity (RAW264.7 [2]): Non-toxic

OC[C@H]1O[C@@H](Oc2ccc3c(c2)OC[C@H]2c4cc5c(cc4O[C@@H]32)OCO5)[C@H](O)[C@@H](O)[C@@H]1O [TRIFOLIRHIZIN]
pIC50 (RAW264.7 [1]): < 4.30
Activity (RAW264.7 [2]): Non-toxic
